Earlier results as cited in patent publication US20220409533A1, “LAG TIME REDUCTION/ICE SPRAY” (LTS LOHMANN THERAPIE-SYSTEME AG, priority 2019, published 2022).

Settings: transdermal application

SMILES: CN1CCCC1c1cccnc1 (stereo not shown) [nicotine]
- resorption delay time (lag time): 6 h
